Data: the supplement of paper PMC10307832

Columns and labels:
Experiment in all cases: relative viability (nuclei count vs DMSO), 5 days (fraction); higher = more cells survive
AZD1208 + Luminespib = compound: N[C@@H]1CCCN(c2c(/C=C3\SC(=O)NC3=O)cccc2-c2ccccc2)C1 [AZD1208] + CCNC(=O)c1noc(-c2cc(C(C)C)c(O)cc2O)c1-c1ccc(CN2CCOCC2)cc1 [Luminespib] (partner 0.01 µM)
How it was run: (§1)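 Lung cancer cell lines in 1536-well plates were dosed by pin tool the day after seeding, either with one drug alone or with a fixed anchor-drug dose plus five library-drug doses (not always all listed) in √10 steps. After 5 days, cells were fixed and their nuclei stained in one step (final 0.05% Triton X-100, 1% formaldehyde, 1 ug/ml Hoechst), then counted on 4× images. Relative viability is the nuclei count in treated wells divided by that in vehicle wells. Values are medians of duplicate plates.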

AZD1208 + Dasatinib = compound: N[C@@H]1CCCN(c2c(/C=C3\SC(=O)NC3=O)cccc2-c2ccccc2)C1 [AZD1208] + Cc1nc(Nc2ncc(C(=O)Nc3c(C)cccc3Cl)s2)cc(N2CCN(CCO)CC2)n1 [Dasatinib] (partner 0.075 µM)
How it was run: as §1

XMD14-99 + Lapatinib = compound: CN1CCN(CC1)C2=CC(=C(C=C2)NC3=NC(=C(S3)C(=O)C4=C(C=CC=C4Cl)Cl)N)OC [XMD14-99] + CS(=O)(=O)CCNCc1ccc(-c2ccc3ncnc(Nc4ccc(OCc5cccc(F)c5)c(Cl)c4)c3c2)o1 [Lapatinib] (partner 2 µM)
How it was run: as §1

XMD14-99 + Navitoclax = compound: CN1CCN(CC1)C2=CC(=C(C=C2)NC3=NC(=C(S3)C(=O)C4=C(C=CC=C4Cl)Cl)N)OC [XMD14-99] + CC1(C)CCC(c2ccc(Cl)cc2)=C(CN2CCN(c3ccc(C(=O)NS(=O)(=O)c4ccc(N[C@H](CCN5CCOCC5)CSc5ccccc5)c(S(=O)(=O)C(F)(F)F)c4)cc3)CC2)C1 [Navitoclax] (partner 0.5 µM)
How it was run: as §1

Cell Line | relative viability (AZD1208 + Luminespib; first compound 0.08 µM) | relative viability (AZD1208 + Luminespib; first compound 0.253 µM) | relative viability (AZD1208 + Luminespib; first compound 0.8 µM) | relative viability (AZD1208 + Luminespib; first compound 2.53 µM) | relative viability (AZD1208 + Luminespib; first compound 8 µM) | relative viability (AZD1208 + Dasatinib; first compound 0.08 µM) | relative viability (AZD1208 + Dasatinib; first compound 0.253 µM) | relative viability (AZD1208 + Dasatinib; first compound 0.8 µM) | relative viability (AZD1208 + Dasatinib; first compound 2.53 µM) | relative viability (AZD1208 + Dasatinib; first compound 8 µM) | relative viability (XMD14-99 + Lapatinib; first compound 0.08 µM) | relative viability (XMD14-99 + Lapatinib; first compound 0.8 µM) | relative viability (XMD14-99 + Lapatinib; first compound 2.53 µM) | relative viability (XMD14-99 + Lapatinib; first compound 8 µM) | relative viability (XMD14-99 + Navitoclax; first compound 0.08 µM) | relative viability (XMD14-99 + Navitoclax; first compound 0.8 µM) | relative viability (XMD14-99 + Navitoclax; first compound 2.53 µM) | relative viability (XMD14-99 + Navitoclax; first compound 8 µM)
NCI-H2228 | 0.162 | 0.112 | 0.125 | 0.136 | 0.163 | 0.476 | 0.521 | 0.398 | 0.43 | 0.342 | 0.952 | 0.9 | 0.811 | 0.291 | 1.05 | 0.933 | 0.918 | 0.364
EMC-BAC-2 | 1.12 | 1.2 | 1.13 | 1.11 | 0.812 | 0.301 | 0.319 | 0.321 | 0.32 | 0.264 | 0.87 | 0.905 | 0.859 | 0.724 | 1.08 | 1.14 | 1.06 | 0.901
NCI-H2009 | 1.1 | 1.04 | 1.06 | 1.09 | 1.05 | 0.257 | 0.267 | 0.279 | 0.249 | 0.304 | 1.03 | 0.997 | 0.834 | 0.666 | 1.15 | 1.1 | 1.03 | 0.999
NCI-H596 | 0.912 | 1.19 | 0.999 | 1.05 | 0.79 | 0.545 | 0.586 | 0.524 | 0.524 | 0.462 | 1.12 | 1.05 | 1.17 | 0.938 | 1.03 | 0.956 | 0.702 | 0.88
NCI-H1792 | 0.407 | 0.437 | 0.358 | 0.394 | 0.284 | 0.722 | 0.595 | 0.647 | 0.675 | 0.55 | 0.995 | 0.89 | 0.912 | 0.536 | 0.747 | 0.638 | 0.561 | 0.41
